Assay results reported in publication PMC10325066, “The FMRF-NH2 gated sodium channel of Biomphalaria glabrata: Localization and expression following infection by Schistosoma mansoni” (PLOS Neglected Tropical Diseases, 2023).
pEC50: −log10 of the molar value. Entries after “also recorded” stand apart in the source; their conditions may differ.

Assays:
[1] = test system: Biomphalaria glabrata FMRF-NH2 gated sodium channel (Bgl-FaNaC); test: Two-electrode voltage clamp of Bgl-FaNaC heterologously expressed in Xenopus oocytes; type: cell-based; settings: peptide 1 mM (given for FLRF-NH2, pQFYRI-NH2, FIRF-NH2; not given for GDPFLRF-NH2); oocyte voltage clamp -60 mV
Procedure: The cDNA encoding the Bgl-FaNaC sequence was codon-optimized for Xenopus laevis and synthesized by Integrated DNA Technologies (IDT, Coralville IA). The Flag-tag protein affinity sequence (DYKDDDDK; Sigma-Aldrich) was added to the N-terminal to enable confirmation of expression. The cDNA was subcloned into the Xenopus expression vector pGEM HE as described previously. The Bgl-FaNaC full-length RNA was transcribed in vitro, capped and polyadenylated using the T7 mScript Standard mRNA Production System (CellScript, Madison WI).
Oocytes were obtained from dissected ovaries of adult Xenopus laevis specimens (Xenopus Express, Brooksville FL). They were dispersed with type II collagenase and manually defolliculated. RNA injections were performed in pre-selected oocytes from stages V and VI. Oocytes were injected with 38.6 nL of Bgl-FaNaC encoding RNA at a concentration of 20 ng/uL using a Nanoliter 2000 microinjector (World Precision Instruments, Sarasota FL).
Injected oocytes were placed at the bottom of a plastic recording chamber (3 ml volume) lined with a nylon mesh and continuously perfused with ND96 (96 mM NaCl, 2 mM KCl, 1.8 mM CaCl2, 1 mM MgCl2, 5 mM HEPES, pH 7.6; see detailed methods in [38]). An OC725B oocyte clamp (Warner Instruments LLC., Hamden CT) was used to clamp the membrane potential at -60 mV with independent microelectrodes for recording (0.1 M potassium chloride) and passing current (3 M potassium chloride). Data were acquired on a Digidata 1200 interface with Clampex (V.6) and analyzed with AxoScope 10.7 (Axon Instruments, Union City CA). All experiments were carried out at room temperature (20–25°C).
Synthetic FMRF-NH2, FLRF-NH2, FIRF-NH2, pQFYRI-NH2, and GDPFLRF-NH2 peptides (>90% purity) were purchased from GL Biochem (Shanghai, China). All peptides were dissolved in ND96 in a stock of 1 mM. Peptide stocks were frozen at -20°C and serial dilutions were freshly prepared before each experiment. Peptides were applied manually using a pipettor (1 mL, upstream from the oocyte).

Planorbella FaNaC = test system: Planorbella FaNaC; set-up: method as in PMID 10878095; settings: cited from earlier work
Cornu aspersum FaNaC = test system: Cornu aspersum FaNaC; set-up: method as in PMID 7501021; settings: cited from earlier work

Compound	Current response to related peptide application [1]	further results
FLRF-NH2 [Synthetic related peptide encoded on the Biomphalaria FMRF-NH2 precursor]	No currents; also recorded: No response was detected	Response of FaNaC to peptide (Planorbella FaNaC): negligible; pEC50 (Cornu aspersum FaNaC; C. aspersum FaNaC, read-out: EC50 for FaNaC activation): 4.96
FIRF-NH2 [Synthetic peptide encoded on the tetrapeptide precursor Bgl-FaRP1]	No currents	–
N=C(N)NC(=O)c1nc(Cl)c(N)nc1N [amiloride]	–	Effect of amiloride on FaNaC responses to FMRF-NH2 (Planorbella FaNaC): potentiates responses to FMRF-NH2; Effect of amiloride on FaNaC (Cornu aspersum FaNaC; FaNaC of Cornu aspersa): blocks
pQFYRI-NH2 [Synthetic peptide encoded on the tetrapeptide precursor Bgl-FaRP1]	No currents	–
GDPFLRF-NH2 [Synthetic heptapeptide, product of the heptapeptide precursor Bgl-FaRP2]	No currents; also recorded: No response was elicited	–
